The source of these data is US20040106685A1, “Method of preventing and/or treating asthma using PBPB” (COUNCIL OF SCIENTIFIC & INDUSTRIAL RESEARCH, priority 2002, published 2004).

What all share (assay type): in vivo, BALB/c male mice
One assay concerns Ova-specific IgE. Briefly: Serum ova-specific IgE levels by Elisa. On the procedure: (§1) In another embodiment of the present invention, wherein after testing the compound for the preventive as well as for therapeutic values in intact conscious mice, mice were sacrificed for collecting the blood and bronchoalveolar lavage (bat) fluid to measure the levels of IgE, cytokines 11-4, IL-5 and IFN-y and homophile. Ovalbumin specific IgE levels m the sera and the levels of IL-4, IL-5 and IFN-y in the BAL fluid were measured by Elisa kits. The prevalence of eosinophils was determined in BAL fluid by flow cytometry.
(§2) BALB/c male mice, eight-ten weeks old, weighing 18-22 grams were acclimatized for one week under the laboratory conditions. Mice were sensitized by injecting intraperitoneally 0.2 ml of saline containing 10 micrograms ovalbumin (ova) (sigma, USA) adsorbed on 2 mg aluminum hydroxide gel on days 0, 7 and 14 followed by aerosol inhalation for 5 consecutive days, from day 19 to 23 with 2% ova (in saline w/v) for 30 minutes daily. Aerosol challenge was performed by placing mice in Plexiglas chamber (20×20×10 cm^3) and ova or saline alone was aerosolized using a nebulizer (devilbiss, model 645, USA) at an airflow rate of 7 litre/minute, sham-sensitized mice received 0.2 ml of saline containing only 2 mg al(oh)3 on days, 0, 7 and 14 followed by inhalation of aerosol of saline without ova for 5 consecutive days.
(§3) The compound PBPB (sigma, USA) was dissolved in absolute alcohol (10 mg/ml). PBPB (20ul by volume) was given orally to each mouse. […] Initial measurements of specific airway conductance and airway reactivity of all the animals were carried out before starting the experiment ovalbumin induced airway constriction and airway reactivity were measured after sensitization protocol was over the measurements were done as described below (example 3,4 and 5). […]
Serum IgE levels were measured in all the groups of mice by Elisa (FIG. 7). Ova-specific IgE levels were measured by enzyme linked immuno sorbent assay (Elisa). […]

Another assay relates to eosinophils in BAL fluid. Briefly: Eosinophils in BAL fluid by flow cytometry. The method, then:
as §1, §2, §3
The levels of eosinophils in BAL fluid were detected by flowcytometry (facsvantage, Becton Dickinson, USA) using the method described by bedner et al (1999). The cells were gated on the basis of the size and fluorescence (FSC versus FL 1) and the percentage of the gated cells was determined by cell quest software. […]

Assay [1] concerns mouse model of asthma (ova sensitized mice). Briefly: Airway reactivity to methacholine (MCh PD35) in sensitized mice. On the procedure:
as §2
The compound PBPB (sigma, USA) was dissolved in absolute alcohol (10 mg/ml). PBPB (20ul by volume) was given orally to each mouse. To evaluate the effect of PBPB on sensitization and the development of impaired airway sensitivity (preventive effect, FIG. 1a), five groups (six mice in each) of mice were used. One group was sham-sensitized control and another group was kept as sensitized control. […] Initial measurements of specific airway conductance and airway reactivity of all the animals were carried out before starting the experiment ovalbumin induced airway constriction and airway reactivity were measured after sensitization protocol was over the measurements were done as described below (example 3,4 and 5).
(§4) To examine the therapeutic effect of PBPB on sensitized mice (therapeutic effect, FIG. ib), mice were sensitized as before without PBPB treatment and airway constriction to ova and airway reactivity to methacholine were measured as described below animals showing at least 40% fall in specific airway conductance to ova aerosol challenge were selected for this study the sensitized mice were randomly divided into 4 groups of 6 mice in each group three groups of mice were given daily three different concentrations of PBPB in 20 ul of alcohol adjusted to contain PBPB in a dose of 0.1, and 10 mg/kg body weight respectively for week fourth group was fed only 20 ul alcohol for one week to be used as sensitized control airway constriction and airway reactivity were again measured thereafter.
Airway calibre was measured in the term of specific airway conductance (SGaw). […] The change in the box pressure in response to breathing of the housed mouse was determined with a transducer (validyne mp 45+2 cmh20) and carrier amplifier (validyne model CD 15 carrier demodulator) that were connected to the x-channel of an oscilloscope Tektronix, model 6116, USA). […]

The test system of a further assay is IFN-gamma, IL-4 and IL-5. Briefly: Cytokines IFN-gamma, IL-4 and IL-5 in BAL fluid by Elisa kits. As to conditions: for IL-4 in BAL fluid / IL-5 in BAL fluid / IFN-γ in BAL fluid: mean SEM, n = 4; for IL-4 in BAL fluid: sensitized 143.0 ± 3.0; for IL-5 in BAL fluid: sensitized 158.7 ± 22.5; for IFN-γ in BAL fluid: sensitized 162.0 ± 45.2; for IFN-γ:IL-4 ratio in BAL fluid: sensitized 1.1. The method, then:
as §1, §2
(§5) The compound PBPB (sigma, USA) was dissolved in absolute alcohol (10 mg/ml). PBPB (20ul by volume) was given orally to each mouse. To evaluate the effect of PBPB on sensitization and the development of impaired airway sensitivity (preventive effect, FIG. 1a), five groups (six mice in each) of mice were used. One group was sham-sensitized control and another group was kept as sensitized control. The remaining three groups were given orally three different concentrations of PBPB (0.1, and 10 mg/kg body weight) daily starting from first to the last day of the sensitization the sham-sensitized and sensitized control mice were given only vehicle (20 ul alcohol) in a similar fashion. Initial measurements of specific airway conductance and airway reactivity of all the animals were carried out before starting the experiment ovalbumin induced airway constriction and airway reactivity were measured after sensitization protocol was over the measurements were done as described below (example 3,4 and 5).
as §4
The cytokines IFN-gamma, IL-4 and IL-5 were measured in the BAL fluid by enzyme-linked ImmunoSorbent assay (Elisa) kits (BD pharmingen, USA) as per the manufacturer's protocol.

The test system of assay [2] is mouse model of asthma (ova sensitized mice). Briefly: Ova-induced airway constriction (fall of SGaw) in sensitized mice, dual-chamber whole body plethysmography. On the procedure:
as §2, §5, §4
Airway calibre was measured in the term of specific airway conductance (SGaw). SGaw is a measure of the airway caliber and was estimated using a dual-chamber whole body plethysmograph (Agrawal, 1981). The dual-chamber whole body plethysmograph was designed in our laboratory to suit the size of mouse (FIG. 2). The change in the box pressure in response to breathing of the housed mouse was determined with a transducer (validyne mp 45+2 cmh20) and carrier amplifier (validyne model CD 15 carrier demodulator) that were connected to the x-channel of an oscilloscope Tektronix, model 6116, USA). […]
Animals were acclimatized in the body box in the beginning of the study and at the time of recording the loop, each individual mouse was housed for 10 minutes to set the basal loop correctly. Values of the slopes were recorded on getting at least three similar loops. […]

Setting [3] is: PBPB 1 mg/kg body weight after sensitization.
The mark [4] stands for this setting: PBPB 1 mg/kg body weight during sensitization.

As to `O=C(CBr)c1ccc(Br)cc1` [PBPB, parabromophenacyl bromide], the “serum IgE levels, effect of higher dose” value in the assay on Ova-specific IgE (preventive: 10 mg of PBPB/kg body weight during sensitization) is given as “did not show additional effect”. Besides, in the assay on Ova-specific IgE (preventive: oral 1 mg/kg body weight during sensitization, sensitized mice 384±22.8 ng/ml), the “mean serum IgE level lower compared to sensitized animals” value was found to be 40%. Also, the “fall in serum IgE levels compared to vehicle treated sensitized mice” value in the assay with Ova-specific IgE (therapeutic: 1 mg/kg body weight fed for one week to already sensitized mice, p<0.05) was 47%. In addition, the effective dose with eosinophils in BAL fluid (administration to mice during and after sensitization, inhibition of inflammation (eosinophils in BAL fluid)) worked out at 1 mg/kg body weight. In the assay with eosinophils in BAL fluid (preventive: oral 1 mg/kg body weight during sensitization), the “levels of eosinophils in BAL fluid” value is on record as “prevented the rise in the eosinophils levels”. Besides, the “levels of eosinophils in BAL fluid” value in the assay on eosinophils in BAL fluid (therapeutic: 1 mg/kg body weight in already sensitized mice, p<0.01 vs vehicle treated sensitized mice) is given as “reduced the levels of eosinophils significantly”. Besides, the “MCh PD35, of its initial values” in assay [1] (preventive: treatment during sensitization, 10 mg/kg body weight) worked out at 115%. Further, the “MCh PD35 recovery, of its initial levels” value in assay [1] (preventive: treatment during sensitization, dose 'mg/kg body weight' (figure missing), 24 hours after last ova challenge) is reported as 93%. In assay [1] (therapeutic: oral to sensitized mice already having airway hyper reactivity, 1 mg/kg body weight), the “MCh PD35 recovered, of the basal value” is “over 81%”. In addition, the “MCh PD35 recovery, of the basal value” in assay [1] (therapeutic: oral to sensitized mice already having airway hyper reactivity, 10 mg/kg body weight) was found to be 94%. Also, in the assay with IFN-gamma, IL-4 and IL-5 (setting [3]), the “IL-4 in BAL fluid” value worked out at 42.4 ± 4.9 pg/mL, the “IL-5 in BAL fluid” value was found to be 53.4 ± 2.2 pg/mL, the “IFN-γ in BAL fluid” value worked out at 425.1 ± 54.0 pg/mL and the “IFN-γ:IL-4 ratio in BAL fluid” value was 10. Besides, in the assay with IFN-gamma, IL-4 and IL-5 (setting [4]), the “IL-4 in BAL fluid” value stood at 91.0 ± 13.2 pg/mL, the “IL-5 in BAL fluid” value worked out at 75.1 ± 7.4 pg/mL, the “IFN-γ in BAL fluid” value worked out at 402 ± 14.4 pg/mL and the “IFN-γ:IL-4 ratio in BAL fluid” value is reported as 4.4. The “fall of SGaw level from basal level after ova challenge” value in assay [2] (preventive: oral 0.1 mg PBPB/kg body weight during sensitization, sensitized control fall 48%) was found to be 17%. In addition, the “fall of SGaw after ova challenge, effect of further dose increase” value in assay [2] (preventive: oral 'lo mg/kg body weight' during sensitization) is listed as “did not show any additional effect”. For the same molecule, the “fall of SGaw from basal levels after ova challenge” value in assay [2] (preventive: oral 'mg PBPB/kg body weight' (dose figure missing) during sensitization, sensitized control fall 48%) came out at 4%. In addition, the “SGaw levels recovered, of basal SGaw levels” value in assay [2] (therapeutic: oral for one week to already sensitized mice, 10 mg PBPB/kg body weight) is 96%. Further, the “SGaw levels recovered, of normal basal levels” value in assay [2] (therapeutic: oral for one week to already sensitized mice, dose 'mg/kg body weight' (figure missing)) is 86%.
